In patent US9187458B2, “Cyanoquinoline derivatives” (Tianjin Hemay Bio-Tech Co., LTD., priority 2010, dated 2015):

Assays:
Assay type in all cases: cell-based
SW620 cells = test: SW620 Cell Growth Inhibition Test (SRB Assay); conditions: Homo sapiens, SW-620, 91 h incubation
Description: SW620 Cell Growth Inhibition Test (SRB Assay)
Cell strains: SW620 (human colorectal cancer cell strains);
SRB: available from Sigmaaldrich, goods number: S9012, lot number: 047K3751. […] was reserved at the room temperature. 0.4% (w/v) of working solution was formulated with 1% of glacial acetic acid. The solution was reserved at 4° C.; anti-tumor compounds; DMSO.
Culture medium: 90% L15+10% FBS;
1. A plate (10 cm) of cells in logarithmic growth phase normally cultured was collected. The culture solution was sucked out. The plate was washed wtih 5 mL of PBS 1-2 times;
2. PBS was sucked out. […] of 0.25% pancreatin was added to infiltrate the cells for 30 s;
3. The pancreatin was sucked out. The culture plate was placed in an incubator. Digestion was carried out for about 1.5-2 min at 37° C.;
4. 4 mL of complete culture solution was added to the culture plate to stop the digestion. The cells were carefully scoured with micropipette (1 ml) to give a uniform single cell suspension;
5. Cell suspension was counted. The suspension was diluted to 1.5×10^5/ml. The resulting suspension was developed uniformly on a plate by 15000 cells/100 μl per well. The culture plate was incubated overnight under 5% CO2 at 37° C. In day 2, 100 μl of culture solution comprising a compound was added in each well, and further incubated for 91 h under 5% CO2 at 37° C.;
6. The culture solution was sucked out. 100 uL of TCA fixed cells which were diluted to 10% were added to each well. The plate was kept in a refrigerator for 1 h at 4° C.
7. TCA stationary liquid was sucked out. Each well was washed with 150 μL of ddH2O five times;
8. After the stationary liquid was cleansed, the plate was dried in the air at the room temperature;
9. 60 μL of SRB staining solution was added in each well. The well was stained for 15 min at the room temperature;
10. The SRB staining solution was sucked out. Each well was washed with 150 μL of 1% glacial acetic acid five times;
11. After the SRB staining solution was cleansed, the plate was dried in the air at the room temperature;
12. 100 μL of 10 mM Tris was added in each well, the plate was vibrated to dissolve out SRB;
13. OD values were determined at 570 nM.
To: OD values of the starting content of cells when the cells were developed on a plate;
PC: OD values of cells after normal growth in control wells without a compound;
Ti: OD values of cells after growth in test wells with a compound;
NC: Background OD values of blank wells without a compound and cells
Therefore: Ratio of cells in test wells to normal wells (% of control cell growth)=(Ti−To)/(PC−To)×100%
Ratio GI50 was concentration of a compound at the point of 50%.
Therefore: Ratio of killed cells to inoculated cells (% of killed cell)=(Ti−To)/(To−NC)×100%
LC50 was concentration point of a compound when half of the starting inoculated concentration was reached.
Concentration of a compound at this point is defined as TGI (total growth inhibition).

AsPC-1 cells = test: AsPC-1 Cell Growth Inhibition Test (MTT Assay); conditions: Homo sapiens, ASPC1, 72 h incubation
Outline: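 Human pancreatic cancer AsPC-1 cells seeded at 8000 cells/well, incubated overnight, then exposed to compound for 72 h at 37 °C, 5% CO2. Viability read by MTT (0.5 mg/ml, 3 h), formazan dissolved in DMSO, OD at 490 nm. Inhibition ratio = (PC−n)/(PC−NC)×100%; IC50 = concentration giving 50% inhibition, curve-fitted.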

CCRF-CEM/T cells = test: CCRF-CEM/T Cell Growth Inhibition Test (MTT Assay); conditions: Homo sapiens, CCRF-CEM/T cells (resistant to paclitaxel), 72 h incubation
Description: CCRF-CEM/T Cell Growth Inhibition Test (MTT Assay)
Cell strains: CCRF-CEM/T (human acute lymphocytic cell leukemia cells);
triple lysate solution: 10% SDS, 5% isobutanol, 0.012M HCl.
1. Cells were cultured to exponential phase. The cells were suspension cells;
2. The cells were collected by centrifuge. The resulting cells were resuspended in a complete culture medium to a desired concentration. The cells suspension was implanted into a 96-well cell culture plate by 20000 cells per well. A compound was added in the wellsuch that the final volume of the system was 120 μl. The system was further incubated for 72 h under 5% CO2 at 37° C.
7. 30 μl of serum-free culture solution containing 2.5 mg/ml MTT was added in each well, and incubated for 3 h;
8. 150 μl of triple lysate solution was added in each well and placed to dissolve at the room temperature;
9. OD values were determined at 570 nM.
(§1) 1. Calculation of Relative Inhibition Ratio The inhibition ratio of a compound on cell growth=(PC−n)/(PC−NC)×100%
(§2) IC50: Concentration of a compound where inhibition ratio was 50%. IC50 values were fitted with Origin7.5.

SK-OV-3 cells = test: SK-OV-3 Cell Growth Inhibition Test (MTT Assay); conditions: Homo sapiens, 72 h incubation
Description: SK-OV-3 Cell Growth Inhibition Test (MTT Assay)
Cell strains: SK-OV-3 (human ovarian cancer cell strains);
Culture medium: 90% McCoy's 5A+10% FBS;
1. A plate (10 cm) of cells in logarithmic growth phase normally cultured was collected;
2. The culture solution was sucked out. The plate was washed with 5 ml of PBS 1-2 times;
3. PBS was sucked out. 1.5 ml of 0.25% pancreatin was added to infiltrate the cells for 1 min;
4. The pancreatin was sucked out. The culture plate was placed in an incubator. Digestion was carried out for about 5 min at 37° C.;
5. 4.5 ml of complete culture solution was added to the culture plate to stop the digestion.T the cells were carefully scoured with micropipette (1 ml) to give a uniform cell suspension. The suspension was implanted into a 96-well cell culture disc by 4000 cells/100 μl per well. The culture plate was incubated overnight under 5% CO2 at 37° C. In day 2, 100 μl of culture solution comprising a compound was added in each well, and further incubated for 72 h under 5% CO2 at 37° C.
6. The culture solution was sucked out;
7. 100 μl of serum-free culture solution containing 0.5 mg/ml MTT was added in each well, and incubated for 3 h;
8. The culture solution was carefully sucked out;
9. 100 μl of DMSO was added in each well and vibrated to dissolve;
10. OD values were determined at 490 nM.
as §1, §2

Row | SMILES | GI50 (SW620 cells) [nM] | IC50 (AsPC-1 cells) [nM] | IC50 (CCRF-CEM/T cells) [nM] | IC50 (SK-OV-3 cells) [nM]
1 | CN(C)C/C=C/C(=O)Nc1cc2c(Nc3ccc(OCc4ccccn4)c(Cl)c3)c(C#N)cnc2cc1OC1CCOC1 (centres unmarked) [Example 21, (E)-N-(4-(3-CHLORO-4-(PYRIDIN-2-YL-METHOXY)PHENYLAMINO)-3-CYANO-7-(TETRAHYDROFURAN-3-YL-OXY)QUINOLIN-6-YL)-4-(DIMETHYLAMINO)-BUT-2-ENAMIDE] | 1780 | – | – | –
2 | Cc1ccccc1COc1ccc(Nc2c(C#N)cnc3cc(OC4CCOC4)c(NC(=O)/C=C/CN(C)C)cc23)cc1Cl (centres unmarked) [Example 17, (E)-N-(4-(4-(2-METHYLBENZYLOXY)-3-CHLOROPHENYLAMINO)-3-CYANO-7-(TETRAHYDROFURAN-3-YL-OXY)QUINOLIN-6-YL)-4-(DIMETHYLAMINO)-BUT-2-ENAMIDE] | – | 1000 | – | –
3 | CN(C)C/C=C/C(=O)Nc1cc2c(Nc3ccc(OCc4ccccc4Cl)c(Cl)c3)c(C#N)cnc2cc1OC1CCOC1 (centres unmarked) [Example 10, (E)-N-(4-(4-(2-CHLOROBENZYLOXY)-3-CHLOROPHENYLAMINO)-3-CYANO-7-(TETRAHYDROFURAN-3-YL-OXY)QUINOLIN-6-YL)-4-(DIMETHYLAMINO)-BUT-2-ENAMIDE] | – | 1000 | – | –
4 | C#Cc1cccc(Nc2c(C#N)cnc3cc(OC4CCOC4)c(NC(=O)/C=C/CN(C)C)cc23)c1 (centres unmarked) [Example 5, (E)-N-(3-CYANO-4-(3-ETHYNYLPHENYLAMINO)-7-(TETRAHYDROFURAN-3-YL-OXY)QUINOLIN-6-YL)-4-(DIMETHYLAMINO)-BUT-2-ENAMIDE] | 1680 | – | 9000 | 195
5 | CN(C)C/C=C/C(=O)Nc1cc2c(Nc3ccc(OCc4cccc(C#N)c4)c(Cl)c3)c(C#N)cnc2cc1OC1CCOC1 (centres unmarked) [Example 15, (E)-N-(4-(4-(3-CYANOBENZYLOXY)-3-CHLOROPHENYLAMINO)-3-CYANO-7-(TETRAHYDROFURAN-3-YL-OXY)QUINOLIN-6-YL)-4-(DIMETHYLAMINO)-BUT-2-ENAMIDE] | – | 1100 | – | –
6 | C#Cc1cccc(Nc2c(C#N)cnc3cc(O[C@H]4CCOC4)c(NC(=O)/C=C/CN(C)C)cc23)c1 [Example 140, (S,E)-N-(3-CYANO-4-(3-ETHYNYLPHENYLAMINO)-7-(TETRAHYDROFURAN-3-YL-OXY)QUINOLIN-6-YL)-4-(DIMETHYLAMINO)-BUT-2-ENAMIDE] | 2300 | – | 7900 | 286
7 | C#Cc1cccc(Nc2c(C#N)cnc3cc(O[C@@H]4CCOC4)c(NC(=O)/C=C/CN(C)C)cc23)c1 [Example 141, (R,E)-N-(3-CYANO-4-(3-ETHYNYLPHENYLAMINO)-7-(TETRAHYDROFURAN-3-YL-OXY)QUINOLIN-6-YL)-4-(DIMETHYLAMINO)-BUT-2-ENAMIDE] | 1400 | – | 9100 | 283
8 | CN(C)C/C=C/C(=O)Nc1cc2c(Nc3ccc(OCc4ccccc4)c(Cl)c3)c(C#N)cnc2cc1OC1CCOC1 (centres unmarked) [Example 12, (E)-N-(4-(4-(BENZYLOXY)-3-CHLOROPHENYLAMINO)-3-CYANO-7-(TETRAHYDROFURAN-3-YL-OXY)QUINOLIN-6-YL)-4-(DIMETHYLAMINO)-BUT-2-ENAMIDE] | – | 1200 | – | –
9 | CN(C)C/C=C/C(=O)Nc1cc2c(Nc3ccc(OCc4cccc(Cl)c4)c(Cl)c3)c(C#N)cnc2cc1OC1CCOC1 (centres unmarked) [Example 11, (E)-N-(4-(4-(3-CHLOROBENZYLOXY)-3-CHLOROPHENYLAMINO)-3-CYANO-7-(TETRAHYDROFURAN-3-YL-OXY)QUINOLIN-6-YL)-4-(DIMETHYLAMINO)-BUT-2-ENAMIDE] | – | 1200 | – | –

More lines, in order of falling IC50 (AsPC-1 cells), values ahead:

Row | GI50 (SW620 cells) [nM] | IC50 (AsPC-1 cells) [nM] | IC50 (CCRF-CEM/T cells) [nM] | IC50 (SK-OV-3 cells) [nM] | SMILES
10 | – | 922 | – | – | CN(C)C/C=C/C(=O)Nc1cc2c(Nc3ccc(OCc4ccccc4C#N)c(Cl)c3)c(C#N)cnc2cc1OC1CCOC1 (centres unmarked) [Example 13, (E)-N-(4-(4-(2-CYANOBENZYLOXY)-3-CHLOROPHENYLAMINO)-3-CYANO-7-(TETRAHYDROFURAN-3-YL-OXY)QUINOLIN-6-YL)-4-(DIMETHYLAMINO)-BUT-2-ENAMIDE]
11 | – | 895 | 3760 | – | CCN(CC)C/C=C/C(=O)Nc1cc2c(Nc3ccc(OCc4ccccn4)c(Cl)c3)c(C#N)cnc2cc1O[C@H]1CCOC1 [Example 150, (S,E)-N-(4-(3-CHLORO-4-(PYRIDIN-2-YL-METHOXY)PHENYLAMINO)-3-CYANO-7-(TETRAHYDROFURAN-3-YL-OXY)QUINOLIN-6-YL)-4-(DIETHYLAMINO)-BUT-2-ENAMIDE]
12 | – | 878 | – | – | CN(C)C/C=C/C(=O)Nc1cc2c(Nc3ccc(OCc4ccccc4F)c(Cl)c3)c(C#N)cnc2cc1OC1CCOC1 (centres unmarked) [Example 8, (E)-N-(4-(4-(2-FLUOROBENZYLOXY)-3-CHLOROPHENYLAMINO)-3-CYANO-7-(TETRAHYDROFURAN-3-YL-OXY)QUINOLIN-6-YL)-4-(DIMETHYLAMINO)-BUT-2-ENAMIDE]
13 | – | 810 | 3600 | – | N#Cc1cnc2cc(O[C@H]3CCOC3)c(NC(=O)/C=C/CN3CCCCC3)cc2c1Nc1ccc(OCc2ccccn2)c(Cl)c1 [Example 151, (S,E)-N-(4-(3-CHLORO-4-(PYRIDIN-2-YL-METHOXY)PHENYLAMINO)-3-CYANO-7-(TETRAHYDROFURAN-3-YL-OXY)QUINOLIN-6-YL)-4-(PIPERIDIN-1-YL)-BUT-2-ENAMIDE]
14 | – | 810 | – | – | CN(C)C/C=C/C(=O)Nc1cc2c(Nc3ccc(OCc4ccc(Cl)cc4)c(Cl)c3)c(C#N)cnc2cc1OC1CCOC1 (centres unmarked) [Example 16, (E)-N-(4-(4-(4-CHLOROBENZYLOXY)-3-CHLOROPHENYLAMINO)-3-CYANO-7-(TETRAHYDROFURAN-3-YL-OXY)QUINOLIN-6-YL)-4-(DIMETHYLAMINO)-BUT-2-ENAMIDE]
15 | – | 621 | – | – | Cc1ccc(COc2ccc(Nc3c(C#N)cnc4cc(OC5CCOC5)c(NC(=O)/C=C/CN(C)C)cc34)cc2Cl)cc1 (centres unmarked) [Example 19, (E)-N-(4-(4-(4-METHYLBENZYLOXY)-3-CHLOROPHENYLAMINO)-3-CYANO-7-(TETRAHYDROFURAN-3-YL-OXY)QUINOLIN-6-YL)-4-(DIMETHYLAMINO)-BUT-2-ENAMIDE]
16 | 2100 | 458 | – | 469 | CN(C)C/C=C/C(=O)Nc1cc2c(Nc3ccc(OCc4cccc(F)c4)c(Cl)c3)c(C#N)cnc2cc1OC1CCOC1 (centres unmarked) [Example 9, (E)-N-(4-(4-(3-FLUOROBENZYLOXY)-3-CHLOROPHENYLAMINO)-3-CYANO-7-(TETRAHYDROFURAN-3-YL-OXY)QUINOLIN-6-YL)-4-(DIMETHYLAMINO)-BUT-2-ENAMIDE]
